This passage reports IC50 results from ChEMBL document CHEMBL6134785, “New ATP-competitive inhibitors of E. coli GyrB obtained from the mapping of the hydrophobic floor at the binding site: synthesis and biological evaluation” (RSC Med Chem, 2024).

SMILES strings stand for the structures.

The test has as its target DNA gyrase (Escherichia coli, UniProt P0AES4+P0AES6). Kind of test: Inhibition of Escherichia coli DNA gyrase supercoiling activity incubated for 30 mins in presence of spermidine/ATP by fluorescence based analysis. In kind it is protein-complex assay.
Usually IC50 stands for the midpoint of a concentration-inhibition curve. `O=C(O)C(=O)Nc1ccc2nc(N(Cc3ccccc3)C(=O)c3cc(Br)c(Br)[nH]3)sc2c1`: the IC50 worked out at 19 nM.
Turning to `O=C(O)C(=O)Nc1ccc2nc(N(Cc3cccc(C(=O)O)c3)C(=O)c3cc(Br)c(Br)[nH]3)sc2c1`, the half-inhibitory concentration (IC50) came out at 96 nM.
As for `O=C(O)C(=O)Nc1ccc2c(c1)s/c(=N\C(=O)c1cc(Br)c(Br)[nH]1)n2Cc1ccccc1`, the figure is 134 nM.
